# Reference: patent publication US8895740B2, “Pyrazolopyrazine kinase inhibitors” (Vertex Pharmaceuticals Incorporated, priority 2010, dated 2014)
# pKi: −log10 of the molar value.
# Columns and labels:
# PKC theta kinase = PKC theta kinase (Homo sapiens, UniProt Q04759); assay: PKC theta kinase coupled-enzyme (NADH consumption) inhibition assay; assay type: biochemical; settings: 240 μM ATP, 18 nM PKC theta, 30° C.
# Procedure: An assay buffer solution was prepared which consisted of 100 mM HEPES (pH 7.5), 10 mM MgCl2, 25 mM NaCl, 0.1 mM EDTA and 0.01% Brij. An enzyme buffer containing reagents to final assay concentrations of 0.00001% Triton X-100, 200 μg/mL Phosphatidylserine, 20 μg/mL Diacylglycerol, 360 μM NADH, 3 mM phosphoenolpyruvate, 70 μg/mL pyruvate kinase, 24 μg/mL lactate dehydrogenase, 2 mM DTT, 100 μM substrate peptide (ERMRPRKRQGSVRRRV SEQ ID NO. 1) and 18 nM PKC theta kinase was prepared in assay buffer. To 60 μL of this enzyme buffer, in a 384 well plate, was added 2 μL of VRT stock solution in DMSO. The mixture was allowed to equilibrate for 10 mins at 30° C. The enzyme reaction was initiated by the addition of 5 μL stock ATP solution prepared in assay buffer to a final assay concentration of 240 μM. Initial rate data was determined from the rate of change of absorbance at 340 nm (corresponding to stoichiometric consumption of NADH) using a Molecular Devices Spectramax plate reader (Sunnyvale, Calif.) over 15 mins at 30° C. For each Ki determination 12 data points covering the VRT concentration range of 0-20 μM were obtained in duplicate (DMSO stocks were prepared from an initial 10 mM VRT stock with subsequent 1:2 serial dilutions). Ki values were calculated from initial rate data by non-linear regression using the Prism software package (Prism 4.0a, Graphpad Software, San Diego, Calif.).
# PKC delta kinase = PKC delta kinase (Homo sapiens, UniProt Q05655); assay: PKC delta kinase coupled-enzyme (NADH consumption) inhibition assay; assay type: biochemical; settings: 150 μM ATP, 46 nM PKC delta, 30° C.
# Chain of PKC delta kinase (Q05655 whole entry): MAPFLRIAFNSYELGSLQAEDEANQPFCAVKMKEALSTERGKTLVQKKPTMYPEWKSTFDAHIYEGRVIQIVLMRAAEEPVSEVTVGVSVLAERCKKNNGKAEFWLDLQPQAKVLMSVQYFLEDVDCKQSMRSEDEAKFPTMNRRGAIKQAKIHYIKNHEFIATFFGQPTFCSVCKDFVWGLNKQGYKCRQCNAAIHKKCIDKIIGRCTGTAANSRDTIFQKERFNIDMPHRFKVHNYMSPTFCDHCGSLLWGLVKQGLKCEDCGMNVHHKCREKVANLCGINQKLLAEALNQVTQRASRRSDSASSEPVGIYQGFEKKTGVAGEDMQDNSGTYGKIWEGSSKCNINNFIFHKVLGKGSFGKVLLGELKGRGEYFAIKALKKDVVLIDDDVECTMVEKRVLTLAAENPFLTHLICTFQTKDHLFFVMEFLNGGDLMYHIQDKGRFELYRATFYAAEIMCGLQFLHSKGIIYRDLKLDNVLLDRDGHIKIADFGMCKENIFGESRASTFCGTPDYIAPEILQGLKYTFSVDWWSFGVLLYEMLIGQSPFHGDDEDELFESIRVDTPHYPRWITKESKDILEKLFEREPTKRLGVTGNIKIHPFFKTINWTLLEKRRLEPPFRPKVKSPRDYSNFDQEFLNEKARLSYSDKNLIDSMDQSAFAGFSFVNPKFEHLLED
# Procedure: An assay buffer solution was prepared which consisted of 100 mM HEPES (pH 7.5), 10 mM MgCl2, 25 mM NaCl, 0.1 mM EDTA and 0.01% Brij. An enzyme buffer containing reagents to final assay concentrations of 0.002% Triton X-100, 200 μg/mL Phosphatidylserine, 20 μg/mL Diacylglycerol, 360 μM NADH, 3 mM phosphoenolpyruvate, 70 μg/mL pyruvate kinase, 24 μg/mL lactate dehydrogenase, 2 mM DTT, 150 μM substrate peptide (ERMRPRKRQGSVRRRV SEQ ID NO. 2) and 46 nM PKC delta kinase was prepared in assay buffer. To 16 μL of this enzyme buffer, in a 384 well plate, was added 1 μL of VRT stock solution in DMSO. The mixture was allowed to equilibrate for 10 mins at 30° C. The enzyme reaction was initiated by the addition of 16 μL stock ATP solution prepared in assay buffer to a final assay concentration of 150 μM. Initial rate data was determined from the rate of change of absorbance at 340 nm (corresponding to stoichiometric consumption of NADH) using a Molecular Devices Spectramax plate reader (Sunnyvale, Calif.) over 15 mins at 30° C. For each Ki determination 12 data points covering the VRT concentration range of 0-20 μM were obtained in duplicate (DMSO stocks were prepared from an initial 10 mM VRT stock with subsequent 1:2 serial dilutions). Ki values were calculated from initial rate data by non-linear regression using the Prism software package (Prism 4.0a, Graphpad Software, San Diego, Calif.).
# Chain of PKC theta kinase (Q04759 whole entry): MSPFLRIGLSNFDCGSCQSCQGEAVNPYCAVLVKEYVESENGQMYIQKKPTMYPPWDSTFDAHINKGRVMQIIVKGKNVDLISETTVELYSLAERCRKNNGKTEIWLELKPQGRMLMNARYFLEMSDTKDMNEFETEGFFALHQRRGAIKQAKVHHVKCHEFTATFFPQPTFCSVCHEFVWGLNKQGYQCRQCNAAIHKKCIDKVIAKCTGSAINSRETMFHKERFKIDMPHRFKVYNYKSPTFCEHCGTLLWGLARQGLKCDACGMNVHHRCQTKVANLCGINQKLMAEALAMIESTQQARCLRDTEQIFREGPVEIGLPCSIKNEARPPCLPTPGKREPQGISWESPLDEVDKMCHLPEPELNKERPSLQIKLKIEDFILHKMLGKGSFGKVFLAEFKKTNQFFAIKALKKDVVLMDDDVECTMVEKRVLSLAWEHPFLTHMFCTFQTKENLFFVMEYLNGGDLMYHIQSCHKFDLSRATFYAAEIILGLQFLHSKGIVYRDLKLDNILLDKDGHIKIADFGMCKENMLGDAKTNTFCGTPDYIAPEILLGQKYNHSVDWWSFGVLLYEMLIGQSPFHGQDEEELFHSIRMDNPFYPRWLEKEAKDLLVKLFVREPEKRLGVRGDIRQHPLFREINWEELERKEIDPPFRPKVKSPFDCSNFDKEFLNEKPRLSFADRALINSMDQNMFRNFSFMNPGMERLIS
smiles,measurement,setting,value
"c1cc(-c2n[nH]c3nccnc23)nc(N2CCNCC2)c1 [Compound 1, 3-(6-(piperazin-1-yl)pyridin-2-yl)-1H-pyrazolo[3,4-b]pyrazine]",pKi,PKC theta kinase,> 5.55
same,pKi,PKC delta kinase,< 5.90
